Where a chain is given by its changes, count along the chain named. Like-named read-outs stand apart in the source and are kept apart here.
Columns and labels:
Assay in all cases: Steady-state kinetics of steroid 17α-hydroxylation and lyase reactions, reconstituted system
[1] = biological target: WT P450 17A1 (Homo sapiens, UniProt P05093)
Experimental: (§1) P450 catalytic activity assays to measure steroid hydroxylation and lyase reactions were carried out as described previously ([23], [37], [64]).
(§2) The reactions were initiated by adding an NADPH-regenerating system (final concentrations of 15 mM glucose 6-phosphate, 1.5 mM NADP^+, and 1 IU ml^−1 glucose 6-phosphate dehydrogenase) ([75]) and terminated by quenching and extracting with 2.0 ml CH2Cl2. Aliquots of the organic phases were dried and then dissolved in 100 μl of a CH3CN/H2O (1:1, v/v) mixture. […] The extraction procedure was then repeated, and the (Δ^4) reaction products were analyzed in a Waters Acquity UPLC system using a BEH C18 octadecylsilane column (2.1 mm × 100 mm, 1.7 μm). The reaction products were resolved using a mobile phase composed of solvents A (70% CH3OH, 30% H2O, v/v) and B (CH3CN), at a flow rate of 0.2 ml min^−1. The mobile phase linear gradient proceeded as follows: 0 to 1 min, 5% B; 4 min, 30% B; 4.5 min, 40% B; 4.55 to 6.75 min, 95% BA; and 7 to 10 min, 5% B. The reaction products were identified by coelution with commercial standards and quantified by the A243 peak areas. Steady-state kinetic parameters were estimated using nonlinear regression of hyperbolic fits in GraphPad Prism software, with equations used for kcat and the specificity constant kcat/Km ([76]): Y = (ksp ∗ X)/(1 + (ksp ∗ X/kcat)) and then deriving Km by division.

[2] = biological target: T1, P450 17A1 E305G variant (Homo sapiens, UniProt P05093, E305G)
T1 sequence (P05093 1-508 E305G): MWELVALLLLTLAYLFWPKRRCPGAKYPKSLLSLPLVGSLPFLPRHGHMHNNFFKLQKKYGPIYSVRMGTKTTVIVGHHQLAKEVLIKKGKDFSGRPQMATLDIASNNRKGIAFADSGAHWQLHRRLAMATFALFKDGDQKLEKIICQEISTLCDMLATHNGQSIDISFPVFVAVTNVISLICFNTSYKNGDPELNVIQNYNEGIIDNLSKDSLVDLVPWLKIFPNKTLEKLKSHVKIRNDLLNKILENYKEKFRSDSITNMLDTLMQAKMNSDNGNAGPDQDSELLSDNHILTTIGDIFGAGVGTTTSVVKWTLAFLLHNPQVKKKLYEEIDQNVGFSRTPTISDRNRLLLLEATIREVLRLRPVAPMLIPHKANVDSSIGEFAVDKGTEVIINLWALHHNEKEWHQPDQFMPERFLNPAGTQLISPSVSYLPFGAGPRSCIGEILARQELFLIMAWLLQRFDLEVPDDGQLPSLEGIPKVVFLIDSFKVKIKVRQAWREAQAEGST
Experimental: as §1
as §2, with “The mobile phase linear gradient proceeded as follows: 0 to 1 min, 5% B; 4 min, 30% B; 4.5 min, 40% B; 4.55 to 6.75 min, 95% BA; and 7 to 10 min, 5% B. The reaction products were identified by coelution with commercial standards and quantified by the A243 peak areas.” left out

[3] = biological target: T2, P450 17A1 R358Q variant (Homo sapiens, UniProt P05093, R358Q)
T2 sequence (P05093 1-508 R358Q): T1 sequence (P05093 1-508 E305G) with G305E, R358Q
Experimental: as §1
as §2, with “The mobile phase linear gradient proceeded as follows: 0 to 1 min, 5% B; 4 min, 30% B; 4.5 min, 40% B; 4.55 to 6.75 min, 95% BA; and 7 to 10 min, 5% B. The reaction products were identified by coelution with commercial standards and quantified by the A243 peak areas.” left out

[4] = biological target: T3, P450 17A1 R347H variant (Homo sapiens, UniProt P05093, R347H)
T3 sequence (P05093 1-508 R347H): T1 sequence (P05093 1-508 E305G) with G305E, R347H
Experimental: as §1
as §2, with “The mobile phase linear gradient proceeded as follows: 0 to 1 min, 5% B; 4 min, 30% B; 4.5 min, 40% B; 4.55 to 6.75 min, 95% BA; and 7 to 10 min, 5% B. The reaction products were identified by coelution with commercial standards and quantified by the A243 peak areas.” left out

[5] = lyase reaction (conversion to androstenedione or DHEA)

Sequence of WT P450 17A1 (P05093 whole entry): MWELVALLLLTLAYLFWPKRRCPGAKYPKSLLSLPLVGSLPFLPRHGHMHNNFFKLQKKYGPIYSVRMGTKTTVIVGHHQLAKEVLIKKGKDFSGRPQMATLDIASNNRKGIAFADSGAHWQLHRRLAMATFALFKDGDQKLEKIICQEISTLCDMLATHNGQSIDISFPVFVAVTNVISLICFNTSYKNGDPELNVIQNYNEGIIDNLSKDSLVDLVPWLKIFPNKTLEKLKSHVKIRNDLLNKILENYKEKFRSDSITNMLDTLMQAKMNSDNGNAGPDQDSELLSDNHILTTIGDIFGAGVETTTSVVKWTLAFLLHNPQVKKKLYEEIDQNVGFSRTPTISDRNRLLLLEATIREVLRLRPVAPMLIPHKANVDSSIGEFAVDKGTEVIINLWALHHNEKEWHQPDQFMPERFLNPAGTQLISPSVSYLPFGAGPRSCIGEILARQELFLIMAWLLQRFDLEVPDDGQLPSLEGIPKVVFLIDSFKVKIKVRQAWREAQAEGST
Sequence of WT P450 17A1 (P00167 whole entry partner): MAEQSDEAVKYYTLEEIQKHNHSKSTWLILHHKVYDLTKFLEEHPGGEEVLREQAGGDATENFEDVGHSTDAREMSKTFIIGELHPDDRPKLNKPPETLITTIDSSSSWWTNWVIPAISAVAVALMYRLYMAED

| SMILES | % WT (kcat/Km) [1] [%] | % WT (kcat/Km) ([2]; 17α-hydroxylation) [%] | % WT (kcat/Km) ([3]; 17α-hydroxylation) [%] | % WT (kcat/Km) ([4]; 17α-hydroxylation) [%] | % WT (kcat/Km) ([1]; lyase reaction (conversion to androstenedione or DHEA), WT) [%] | % WT (kcat/Km) [2, 5] [%] | % WT (kcat/Km) [3, 5] [%] | % WT (kcat/Km) [4, 5] [%] |
| --- | --- | --- | --- | --- | --- | --- | --- | --- |
| CC(=O)[C@H]1CC[C@H]2[C@@H]3CCC4=CC(=O)CC[C@]4(C)[C@H]3CC[C@]12C [Progesterone] | 100 | 8 | 11 | 4 |  |  |  |  |
| CC(=O)C1CCC2C3CC=C4C[C@@H](O)CC[C@]4(C)C3CC[C@]12C (stereo partly drawn) [Pregnenolone] | 100 | 0.7 | 12 | 19 |  |  |  |  |
| CC(=O)[C@@]1(O)CCC2C3CC=C4C[C@@H](O)CC[C@]4(C)C3CC[C@@]21C (stereo partly drawn) [17α-OH pregnenolone] |  |  |  |  | 100 | 0.7 | 0.6 | 1.1 |

From article PMC8080067, “Tight binding of cytochrome b5 to cytochrome P450 17A1 is a critical feature of stimulation of C21 steroid lyase activity and androgen synthesis” (The Journal of Biological Chemistry, 2021)
